We go through nine compounds from ChEMBL document CHEMBL1133133, “Difluoroketones as inhibitors of matrix metalloprotease-13” (Bioorg Med Chem Lett, 2000).

The target of this assay is Collagenase 3 (Homo sapiens, UniProt P45452). As to the kind of experiment: Inhibition of Matrix metalloprotease-13.
In general, IC50 refers to the midpoint of a concentration-inhibition curve. Turning to `CNC(=O)C(NC(=O)C(CCc1ccccc1)CC(=O)C(F)(F)c1ccc(Cc2ccccc2)cc1)C(C)(C)C` (centres undefined), the midpoint of inhibition, the IC50, lay at 5.1 µM.

In turn, `C=CC(CCc1ccccc1)CC(=O)C(F)(F)c1ccc(Cc2ccccc2)cc1` (centres undefined) displayed a half-inhibitory concentration (IC50) of 0.29 µM. Take `C=CCCC(=O)C(F)(F)c1ccc(Cc2ccccc2)cc1`: the concentration for half-maximal inhibition (IC50) is over 30 µM. In turn, `CNC(=O)C(NC(=O)CCC(=O)C(F)(F)c1ccc(Cc2ccccc2)cc1)C(C)(C)C` (centres undefined) gave an IC50 of 12 µM. Then `CNC(=O)[C@@H](NC(=O)C(CCc1ccccc1)CP(=O)(O)Cc1ccc(Cc2ccccc2)cc1)C(C)(C)C` (some centres undefined), with 0.014 µM; and `O=C(C(CCc1ccccc1)CC(=O)C(F)(F)c1ccc(Cc2ccccc2)cc1)N1CCCCC1` (centres undefined), with 6.1 µM. With `O=C(CCCCc1ccccc1)C(F)(F)c1ccc(Cc2ccccc2)cc1`, the IC50 was over 30 µM. `CNC(=O)C(NC(=O)C(CCc1ccccc1)CC(O)C(F)(F)c1ccc(Cc2ccccc2)cc1)C(C)(C)C` (centres undefined): the IC50 was over 30 µM. For `C=CC(CCc1ccccc1)CC(O)C(F)(F)c1ccc(Cc2ccccc2)cc1` (centres undefined), the concentration for half-maximal inhibition (IC50) is 27 µM.
